Laboratory results published in patent US9040715B2 (priority 2008, dated 2015).
Values after ≈ are worked out from the molar mass of the structure shown.

What was measured:
[1] = tested on: HCV replicon cell line AVA5 (sub-genomic CONI, genotype 1b); assay: Anti-HCV activity, 3-day HCV replicon assay, blot hybridization of intracellular HCV RNA; type: cell-based
Experimental: (§1) The antiviral activity of Compounds I-8 and I-9 was assessed in a 3-day assay using the stably-expressing HCV replicon cell lines, AVA5 (sub-genomic CONI, genotype 1b) and APC103 (genomic H77, genotype la) maintained as sub -confluent cultures on 96-well plates. Antiviral activity was determined by blot hybridization analysis of intracellular HCV RNA (normalized to the level of cellular B-actin RNA in each culture sample). A 3-fold suppression of HCV RNA and less than 2-fold suppression of cellular B-actin RNA was used as the cutoff. Cytotoxicity was assessed by neutral red dye uptake after 3 days of treatment. Dose response inhibition of HCV was also determined (FIG. 6). The nucleoside analogue 2′C-methyl cytidine (2′CmeC) was used as an assay activity control. EC50, EC90 and CC50 values (+/− standard deviations [S.D.]) were calculated by linear regression analysis. EC50 and EC90 are drug concentrations at which a 2-fold, or a 10-fold depression of intracellular HBV DNA or HCV RNA (relative to the average levels in untreated cultures), respectively, was observed. CC50 is the drug concentration at which a 2-fold lower level of neutral red dye uptake (relative to the average levels in untreated cultures) was observed.

[2] = tested on: HCV replicon cell line APC103 (genomic H77, genotype la); assay: as above; type: cell-based
Experimental: as §1

[3] = Cytotoxicity by neutral red dye uptake after 3 days of treatment; type: cell-based; settings: human
Experimental: as §1

Huh7 or HepG2 cell line = assay: MTT assay (cytotoxicity); type: cell-based, human; settings: 24 hours and 48 hours
Procedure, shortened: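 Huh7 or HepG2 cells seeded, incubated overnight at 37° C, 5% CO2, then exposed to compound dilutions in triplicate. Viability read after 24 and 48 h by MTT reduction (3 h at 37° C), DMSO solubilisation, absorbance at 550 nm.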

Candidia parapsilosis = assay: Anti-fungal/anti-yeast activity: MIC50 (broth microdilution) and MFC; type: cell-based
Procedure, shortened: (§2)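 Broth microdilution per CLSI M27-A2 in RPMI-1640, compounds at final 0.2-100 μg/ml; inoculum 1.0×10^3 cells/well for Candida, 2.0×10^3 for Aspergillus, from 24 h YPD cultures at 30° C. Growth read visually and at 550 nm at 24 and 48 h; MIC50 = lowest concentration giving ≥50% growth reduction vs control.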

Candida tropicalis = assay: as above; type: cell-based
Procedure, shortened: as §2

Candida glabrata = assay: as above; type: cell-based
Procedure, shortened: as §2

Aspergillus fumigatus = assay: as above; type: cell-based
Procedure, shortened: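 CLSI M27-A2 microdilution; RPMI-1640; drug 0.2-100 μg/ml final; 1.0×10^3 Candida or 2.0×10^3 Aspergillus cells/well. Read at 24 h and 48 h, visual plus A550. MIC50: ≥50% growth drop vs control. MFC: 48 h wells subcultured or spotted onto YPD, 30° C, 48 h.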

Candida apicola = assay: as above; type: cell-based
Procedure, shortened: as §2

Candida albicans (CAF-2) = assay: as above; type: cell-based
Procedure, shortened: as §2

Candida lusitaniae = assay: as above; type: cell-based
Procedure, shortened: as §2

C. albicans Mutants = assay: MIC50 in C. albicans mutant strains; type: cell-based; settings: Candida albicans
Experimental: (§3) The minimum inhibitory concentrations resulting in 50% growth inhibition (MIC50) of […] Candida species (C. albicans, C. tropicalis and C. glabrata, C. lusitaniae, C. parapsilosis, and C. apicola) as well as Aspergillus fumigatus to a set of novel synthetic compounds was determined in accordance with the guidelines in CLSI document M27-A2 (Clinical and Laboratory Standards Institute; Wayne, Pa.). The total volume of cells and drug was 100 μL per microtiter well, and each drug was diluted in RPMI to achieve final concentrations of 0.2-100 μg/ml. Uninoculated cultures were used as a reference standard. Stock inoculum suspensions were prepared from 24 hour cultures on YPD (yeast extract/peptone/dextrose) media at 30° C. For MIC determinations, an inoculum of 1.0×10^3 cells of Candidia and 2.0×10^3 cells of Aspergillus per well were used, and cells in diluted drugs were prepared in RPMI-1640 medium. MICs were determined both visually and spectrophotometrically at 24 hours and 48 h at 550 nm using a micro plate reader. The MIC50 endpoint was measured as the lowest drug concentration resulting in a reduction of growth of 50% or more compared with growth of the control.
(§4) The MIC50 of Compounds I-1, I-2, and I-5 in several mutant strains of Candida albicans, including fluconazole resistant clinical strains, was determined according to the methods described in Example 1 (see Table 9). The activity of Compound I-1 against fluconazole resistant strains was further explored (see Table 10). In Table 10, Strain #1 is a fluconazole sensitive Candida albicans strain; Strain #17 is a fluconazole resistant Candida albicans strain; C. albicans CS#01 is a first clinical strain; C. albicans CS#02 is a second clinical strain.

[4] = tested on: Fluconazole Resistant C. albicans; assay: microbe, parasite or virus in culture; type: cell-based; settings: Candida albicans
Experimental: as §3, §4

[5] = tested on: Saccharomyces cerevisiae (YPH501); assay: Anti-fungal/anti-yeast activity: MIC50 (broth microdilution) and MFC; type: cell-based
Huh7 cells = assay: Neutral red uptake assay (cytotoxicity); type: cell-based, human
Procedure, shortened: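 Huh7 human hepatoma cells treated 48 hours with compounds, then 2 hours with neutral red medium. Dye extracted with acidified ethanol after washing; absorbance taken as proportional to viable cell number.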

[6] = Saccharomyces cerevisiae (YPH501)

O=C(Cn1sc2ccccc2c1=O)Nc1cccc(Oc2ccccc2)c1 [Compound I-8]
SI (CC50/EC50) ([1]; AVA5): >17 | EC90 ([1]; Hepatitis C virus, Ava5, read-out: EC90 (μM ± SD)): 5.6 ± 0.7 µM | EC50 ([1]; Hepatitis C virus, AVA5, 2-fold depression of intracellular HCV RNA): 5.8 ± 3.7 µM | SI (CC50/EC50) ([2]; APC103): >18 | EC50 ([2]; Hepatitis C virus, read-out: EC50 (μM ± SD)): 19 ± 2.3 µM | EC90 ([2]; Hepatitis C virus, APC103, 10-fold depression of intracellular HCV RNA): 23 ± 1.8 µM | CC50 at 3 days ([3]; APC103): > 100 µM | CC50 at 3 days ([3]; AVA5): > 100 µM

CN(Cc1ccccc1)C(=O)Cn1sc2ccccc2c1=O [Compound I-1]
Toxicity to mammalian cell lines (MTT assay) (Huh7 or HepG2 cell line): minimally toxic | MFC (Candidia parapsilosis): 3.2 µg/mL | Activity (fungicidal/fungistatic) (Candidia parapsilosis; Candidia parapsilosis): fungicidal (An MFC/MIC ratio of less than four indicates that the compound is fungicidal) | Ratio MFC/MIC (Candidia parapsilosis; Candidia parapsilosis): 1 | MIC (Candidia parapsilosis; read-out: MIC-50): 3.2 µg/mL | Activity (fungicidal/fungistatic) (Candida tropicalis): fungicidal (An MFC/MIC ratio of less than four indicates that the compound is fungicidal) | MFC (Candida tropicalis): 3.2 µg/mL | Ratio MFC/MIC (Candida tropicalis): 1 | MIC (Candida tropicalis; read-out: MIC-50): 3.2 µg/mL | Activity (fungicidal/fungistatic) (Candida glabrata; Candida glabrata): fungicidal (An MFC/MIC ratio of less than four indicates that the compound is fungicidal) | Ratio MFC/MIC (Candida glabrata; Candida glabrata): 2 | MFC (Candida glabrata; Nakaseomyces glabratus): 12.5 µg/mL | MIC (Candida glabrata; Nakaseomyces glabratus, read-out: MIC-50): 6.2 µg/mL | Activity (fungicidal/fungistatic) (Aspergillus fumigatus): fungistatic (an MFC/MIC ratio of greater than four indicates that the compound is fungistatic) | MFC (Aspergillus fumigatus): 100 µg/mL | MIC50 (Aspergillus fumigatus): 25 µg/mL | Ratio MFC/MIC (Aspergillus fumigatus): 4 | Activity (fungicidal/fungistatic) (Candida apicola; Candida apicola): fungicidal (An MFC/MIC ratio of less than four indicates that the compound is fungicidal) | MIC-50 (Candida apicola; Candida apicola): 3.2 µg/mL | Ratio MFC/MIC (Candida apicola; Candida apicola): 1 | MFC (Candida apicola; Starmerella apicola): 3.2 µg/mL | Activity (fungicidal/fungistatic) (Candida albicans (CAF-2)): fungicidal (An MFC/MIC ratio of less than four indicates that the compound is fungicidal) | MFC (Candida albicans (CAF-2)): 6 µg/mL | Ratio MFC/MIC (Candida albicans (CAF-2)): 2 | MIC (Candida albicans (CAF-2); read-out: MIC-50): 3.2 µg/mL | Activity (fungicidal/fungistatic) (Candida lusitaniae; Candida lusitaniae): fungicidal (An MFC/MIC ratio of less than four indicates that the compound is fungicidal) | Ratio MFC/MIC (Candida lusitaniae; Candida lusitaniae): 1 | MFC (Candida lusitaniae; Clavispora lusitaniae): 3.2 µg/mL | MIC (Candida lusitaniae; Clavispora lusitaniae, read-out: MIC-50): 3.2 µg/mL | MIC50 (C. albicans Mutants; C. albicans strain CAF-2): 3 µg/mL (≈ 9.6 µM) | MIC50 (C. albicans Mutants; C. albicans strain CHK11): 3 µg/mL (≈ 9.6 µM) | MIC50 (C. albicans Mutants; C. albicans strain CHK21): 3 µg/mL (≈ 9.6 µM) | MIC50 (C. albicans Mutants; C. albicans strain CHK23): 3 µg/mL (≈ 9.6 µM) | MIC50 (C. albicans Mutants; C. albicans strain GOA31): 6 µg/mL (≈ 19.2 µM) | MIC50 (C. albicans Mutants; C. albicans strain GOA32): 3 µg/mL (≈ 9.6 µM) | MIC50 ([4]; C. albicans CS#01, first clinical strain): 3 µg/mL (≈ 9.6 µM) | MIC50 ([4]; C. albicans CS#02, second clinical strain): 3 µg/mL (≈ 9.6 µM) | MIC50 ([4]; Strain #1, fluconazole sensitive Candida albicans strain): 3 µg/mL (≈ 9.6 µM) | MIC50 ([4]; Strain #17, fluconazole resistant Candida albicans strain): 6 µg/mL (≈ 19.2 µM) | MFC ([5]; Saccharomyces cerevisiae): 3.2 µg/mL (≈ 10.2 µM) | Activity (fungicidal/fungistatic) [5, 6]: fungicidal (An MFC/MIC ratio of less than four indicates that the compound is fungicidal) | Ratio MFC/MIC [5, 6]: 2 | MIC ([5]; Saccharomyces cerevisiae, read-out: MIC-50): 1.6 µg/mL (≈ 5.12 µM) | Percentage Viability (Huh7 cells; 3.3 μg/mL (approx 1X MIC)): >100% | Percentage Viability (Huh7 cells; 10 μg/mL (approx 3X MIC)): >100% | Percentage Viability (Huh7 cells; 33 μg/mL (approx 10X MIC)): >100% | Percentage Viability (Huh7 cells; 100 μg/mL (approx 30X MIC)): 83%
